Laboratory results taken from publication PMC9370761, “Anti-Inflammatory Effects of Auranamide and Patriscabratine—Mechanisms and In Silico Studies” (Molecules, 2022).

Legend:
TNF-α = TNF-α ELISA in LPSEc challenged RAW 264.7 cells; assay type: cell-based, murine; conditions: 10 μM; vs untreated cells; LPSEc alone 4.33 ± 0.17
Method: (§1) The anti-inflammatory activity of the test compounds was assessed in E. coli lipopolysaccharide (LPSEc)-induced inflammation in RAW 264.7 cells. Cells (5 × 10^5 cells/well) were incubated for 24 h in a 24-well plate. Then, the cells were challenged with LPSEc (100 ng/mL) for 4 h. The test compounds (10, 1, 0.1, 0.01 and 0.001 µM) or positive control (dimethyl fumarate, 10 μM) were then added and incubated for 24 h. The levels of NO production and pro-inflammatory cytokines (IL-1β, IL-6, IFN-γ and TNF-α) were determined using the supernatant solution. The cell pellet was used to measure the levels of COX-2, NF-κB p65, NRF2, and HO-1.
(§2) Single-Analyte ELISArray kits were used to quantify the pro-inflammatory cytokines (IL-1β, IL-6, IFN-γ and TNF-α) in the cell supernatant following the manufacturer’s instructions. The standard protein (50 μL) or test sample solutions (50 μL) were added to a well (in duplicate) and incubated for 2 h at room temperature. The contents in the well were washed with wash buffer, and then 100 µL of biotinylated detection antibody solution was added and incubated for 1 h at room temperature. […] The optical density was measured at 450/570 nm using a Spectramax microplate reader M3 (Molecular Devices, LLC., San Jose, CA 95134, USA). The levels of pro-inflammatory cytokines (in pg/mL) in test samples were calculated using the standard curve. […]

[1] = Metabolic stability in mouse liver microsomes; assay type: in vitro ADME; conditions: 37 °C; for Clint: 0.5 µM; for half-life at 0.5 µM: read-out: Half-life (T1/2)
Method: (§3) Metabolic stability is an important parameter in the drug discovery pipeline. The metabolic stability of test compounds was evaluated in vitro using human, rat and mouse liver microsomes. The metabolic equation below determines the test compounds’ half-life (T1/2) and intrinsic clearance (Clint). Compound+ NADPH + H^++ O2 → oxidized analyte + NADP^++ H2O
(§4) The metabolic stability of the test compounds in human, rat, and mouse liver microsomes was determined using the method described in our previous work. Five microlitres of auranamide or patriscabratine (0.5 µM) were incubated in a reaction mixture at 37 °C for 0, 3, 6, 15, 30, 45 and 60 min. The concentration of test compounds in the reaction mixture was quantified using Agilent 1290 coupled with Q-TOF. The experiment was carried out in triplicate. The concentration versus time plot calculated the elimination rate constant (Kel). The below formulae were used to calculate the intrinsic clearance (Clint) and half-life (T1/2). The results are expressed as mean ± standard deviation from three experiments. Clint= Kel/0.5 ×52.5 T1/2= 0.693/Kel

NF-κB p65 = NF-κB p65 ELISA, nuclear extract of LPSEc-stimulated RAW 264.7 cells; assay type: cell-based, murine; conditions: 10 μM; LPSEc control 8.40 ± 0.09
Method: as §1
(§5) The COX-2 level was estimated in the cytoplasmic extract, whereas NF-κB p65, NRF-2 and HO-1 levels were estimated in nuclear extract. The nuclear extraction kit was used to separate the cytoplasm from the nucleus following the manufacturer’s instructions. The cell pellet was incubated in 100 µL of pre-extraction buffer on ice for 10 min, vortexed, and centrifuged. The supernatant cytoplasmic extract was collected. […] The protein concentration in the extracts was determined using Bradford’s reagent. […] The levels were measured in triplicate. The absorbance was measured using a Spectramax M3 microplate reader (Molecular Devices, LLC., San Jose, CA 95134, USA). […]

[2] = Metabolic stability in human liver microsomes; assay type: in vitro ADME; conditions: 37 °C; for Clint: 0.5 µM; for half-life at 0.5 µM: read-out: Half-life (T1/2)
Method: as §3, §4

COX-2 = COX-2 ELISA, cytoplasmic extract of LPSEc-stimulated RAW 264.7 cells; assay type: cell-based, murine; conditions: 10 μM; LPSEc control 8.09 ± 0.08
Method: as §1, §5

IL-1β = IL-1β ELISA in LPSEc challenged RAW 264.7 cells; assay type: cell-based, murine; conditions: 10 μM; vs untreated cells; LPSEc alone 4.56 ± 0.13
Method: as §1, §2

IL-6 = IL-6 ELISA in LPSEc challenged RAW 264.7 cells; assay type: cell-based, murine; conditions: 10 μM; vs untreated cells; LPSEc alone 6.91 ± 0.05
Method: as §1, §2

[3] = system: nitric oxide (NO) production; assay: NO production (Griess assay) in LPSEc-stimulated RAW264.7 cells; assay type: cell-based, murine; conditions: for reduced the NO production by: 10 μM, LPSEc-stimulated NO = 100%; for IC50: Mus musculus, 100 ng/mL LPSEc, RAW264.7, 24 h, read-out: IC50 (concentration required to reduce the NO production by 50%)
Method: The anti-inflammatory activity of the compounds was tested using Escherichia coli lipopolysaccharide (LPSEc) stimulated RAW264.7 cells. Nitric oxide (NO) is a classical marker used to measure inflammation. The Griess assay was used to determine NO production. The cells were stimulated with 100 ng/mL LPSEc and the NO produced was considered to be at 100%. The anti-inflammatory effect of the compounds was assessed by adding the compounds (10, 1, 0.1, 0.01, and 0.001 µM) to the LPSEc stimulated cells. The efficacy of the compounds was assessed by calculating their ability to reduce the LPSEc stimulated NO production. Dimethyl fumarate was used as a positive control, and 0.1% DMSO was used as a negative control. […] The anti-inflammatory effect was not observed at concentrations of less than 0.1 μM.
as §1
LPSEc activates inducible nitric oxide synthase (iNOS) in RAW 264.7 cells and produces nitric oxide (NO), an important mediator of inflammation. The NO content in the supernatant solution was measured using the Griess assay following the manufacturer’s instructions. The optical density (OD) was measured at 540 nm using a Spectramax M3 microplate reader (Molecular Devices, LLC., San Jose, CA 95134, USA). The formula provided below was used to calculate the percentage of NO production. Percent NO production=ODtreated cells− ODblank/ODuntreated cells− ODblank×100%
The activity of the test compounds was tested in triplicate on each plate. The results are presented as mean ± SD. Treatment was performed with either LPSEc alone or LPSEc and test compounds were designated as treated cells. RAW264.7 cells treated with vehicle (0.1% DMSO) were designated as untreated cells.

[4] = Metabolic stability in rat liver microsomes; assay type: in vitro ADME; conditions: 37 °C; for Clint: 0.5 µM; for half-life at 0.5 µM: read-out: Half-life (T1/2)
Method: as §3, §4

RAW264.7 cells = assay: MTT cytotoxicity on RAW264.7 cells; assay type: cell-based, murine; conditions: MTT assay, 24 h, RAW 264.7 cells
Method: (§6) The cytotoxicity of the test compounds on RAW 264.7 and Hepa-1c1c7 cells was assessed using Vybrant® MTT Cell Proliferation Assay Kit following the manufacturer’s protocol. The cells were seeded at 5 × 10^5 cells/well and incubated for 24 h. Then, various concentrations (100 to 0.01 μM) of the test compounds were added and incubated for a further 24 h. The cell supernatant solution was replaced with the MTT assay solution and incubated for 4 h. The formazan crystals were dissolved in DMSO, and the optical density (OD) of the solution was measured at 570 nm (reference wavelength 630 nm) using Spectramax M3 microplate reader (Molecular Devices, LLC., San Jose, CA 95134, USA). The cell viability was calculated using the following formula, and the results are presented as mean ± SD. Percent cell viability %=ODtreated cells−ODblank/ODuntreated cells− ODblank×100%

NQO1 = NQO1 activity, Prochaska microtiter plate bioassay in Hepa-1c1c7 cells; assay type: cell-based, murine; conditions: 48 h
Method: The NRF2 activation is associated with increased NQO1 activity and an increased concentration of NRF2 and HO-1 in the nucleus. The protective role of NRF2/HO-1 in inflammatory diseases is well documented. Therefore, the NRF2 and HO-1 levels in nuclear extracts of the RAW 264.7 cells were determined using ELISA kits and expressed as fold changes with reference to the negative control. The effect of test compounds on NQO1 activity was determined using the reported method in murine hepatoma cells (Hepa-1c1c7). Dimethyl fumarate was used as a positive control, and 0.1% DMSO was used as a negative control. […] The CD value (concentration of test compound to double the NQO1 activity) of auranamide was 6.81 ± 0.18 μM, while for patriscabratine it was 4.28 ± 0.17 μM.
The “Prochaska” Microtiter Plate Bioassay was used to measure the NQO1 activity in hepatoma cells (Hepa-1c1c7). The cells (5 × 10^5 per well) were seeded and incubated with either auranamide or patriscabratine (10, 1, 0.1, 0.01, and 0.001 µM) or a reference drug (dimethyl fumarate, 10 μM) for 48 h. […] The protein concentration was determined using Bradford’s reagent. […] The optical density of the solution was determined at 610 nm using a Spectramax M3 microplate reader (Molecular Devices, LLC., San Jose, CA 95134, USA), and the values were normalized to the total protein content.

NRF2 = NRF2 ELISA, nuclear extract of RAW 264.7 cells; assay type: cell-based, murine; conditions: 10 μM, vs negative control
Method: (§7) The NRF2 activation is associated with increased NQO1 activity and an increased concentration of NRF2 and HO-1 in the nucleus. The protective role of NRF2/HO-1 in inflammatory diseases is well documented. Therefore, the NRF2 and HO-1 levels in nuclear extracts of the RAW 264.7 cells were determined using ELISA kits and expressed as fold changes with reference to the negative control. The effect of test compounds on NQO1 activity was determined using the reported method in murine hepatoma cells (Hepa-1c1c7). Dimethyl fumarate was used as a positive control, and 0.1% DMSO was used as a negative control. […]
(§8) The anti-inflammatory activity of the test compounds was assessed in E. coli lipopolysaccharide (LPSEc)-induced inflammation in RAW 264.7 cells. […] The levels of NO production and pro-inflammatory cytokines (IL-1β, IL-6, IFN-γ and TNF-α) were determined using the supernatant solution. […]
(§9) The COX-2 level was estimated in the cytoplasmic extract, whereas NF-κB p65, NRF-2 and HO-1 levels were estimated in nuclear extract. […] The protein concentration in the extracts was determined using Bradford’s reagent. […] The levels were measured in triplicate. The absorbance was measured using a Spectramax M3 microplate reader (Molecular Devices, LLC., San Jose, CA 95134, USA). […]

IFN-γ = IFN-γ ELISA in LPSEc challenged RAW 264.7 cells; assay type: cell-based, murine; conditions: 10 μM; vs untreated cells; LPSEc alone 8.62 ± 0.26
Method: as §1, §2

HO-1 = HO-1 ELISA, nuclear extract of RAW 264.7 cells; assay type: cell-based, murine; conditions: 10 μM, vs negative control
Method: as §7, §8, §9

Hepa-1c1c7 cells = assay: MTT cytotoxicity on Hepa-1c1c7 cells; assay type: cell-based, murine; conditions: MTT assay, 24 h
Method: as §6

Structure (SMILES) | TNF-α fold change (TNF-α) | Clint [1] | half-life at 0.5 µM [1] | NF-κB p65 fold change (NF-κB p65) | Clint [2] | half-life at 0.5 µM [2] | COX-2 fold change (COX-2) | IL-1β fold change (IL-1β) | IL-6 fold change (IL-6) | reduced the NO production by [3] | IC50 [3] | Clint [4] | half-life at 0.5 µM [4] | concentrations found to be cytotoxic (RAW264.7 cells) | CD value (concentration of test compound to double the NQO1 activity) (NQO1) | NRF2 upregulation (NRF2) | IFN-γ fold change (IFN-γ) | HO-1 upregulation (HO-1) | concentrations found to be cytotoxic (Hepa-1c1c7 cells)
O=C(N[C@@H](COC(=O)[C@H](Cc1ccccc1)NC(=O)c1ccccc1)Cc1ccccc1)c1ccccc1 [Auranamide] | 2.42 ± 0.24 fold change | 16.18 ± 0.43 mL/min/g liver | 4.5 min | 2.13 ± 0.20 fold changes | 10.18 ± 0.35 mL/min/g liver | 7.14 min | 2.53 ± 0.25 fold changes | 2.05 ± 0.16 fold change | 2.85 ± 0.31 fold change | 33.22% | 1.22 ± 0.95 µM | 17.22 ± 0.46 mL/min/g liver | 4.23 min | higher than 10 µM | 6.81 ± 0.18 µM | 2.66 ± 0.16 fold | 4.06 ± 0.19 fold change | 1.74 ± 0.09 fold | higher than 10 µM
CC(=O)NC(COC(=O)C(Cc1ccccc1)NC(=O)c1ccccc1)Cc1ccccc1 (centres unmarked) [Patriscabratine] | 2.53 ± 0.18 fold change | 18.64 ± 0.51 mL/min/g liver | 3.9 min | 2.25 ± 0.27 fold changes | 13.27 ± 0.42 mL/min/g liver | 5.48 min | 2.17 ± 0.31 fold changes | 1.96 ± 0.12 fold change | 2.51 ± 0.38 fold change | 30.84% | 1.85 ± 0.93 µM | 18.53 ± 0.56 mL/min/g liver | 3.93 min | higher than 10 µM | 4.28 ± 0.17 µM | 2.37 ± 0.06 fold | 4.15 ± 0.21 fold change | 1.83 ± 0.07 fold | higher than 10 µM
